What all share (format): cell-based, rabbit
Test [1] concerns renal proximal tubular cells. Put plainly: Cell density (monolayer protein content) in DCVC-injured RPTC. The protocol: Rabbit renal proximal tubules were isolated using the iron oxide perfusion method and grown in 35-mm tissue culture dishes or 48-well cell culture clusters under improved conditions as previously described (35, 36). The cell culture medium was a 1:1 mixture of DMEM/Ham's F-12 (without D-glucose, phenol red, or sodium pyruvate) supplemented with 15 mM HEPES buffer, 2.5 mM L-glutamine, 1 μM pyridoxine HCl, 15 mM sodium bicarbonate, and 6 mM lactate. Hydrocortisone (50 nM), selenium (5 ng/ml), human transferrin (5 μg/ml), bovine insulin (10 nM), and L-ascorbic acid-2-phosphate (50 μM or 500 μM) were added to fresh culture medium immediately prior to daily media change. L-Ascorbic acid-2-phosphate (AscP) was used due to the fact that L-ascorbic acid is unstable in culture media. AscP is stable in culture media for ≧7 days at 37° C. and, after intracellular dephosphorylation, has the same effect on cultured cells as L-ascorbic acid (13).
(§1) Confluent monolayers of renal proximal tubular cells (day 6 after seeding) were exposed to 200 μM S-(1,2-dichlorovinyl)-L-cysteine (dissolved in water) for 1.75 hours followed by toxicant removal and addition of fresh culture media. This method produces approximately 50% cell death and loss 24 hours after the exposure. On days 1, 4, and 6 following S-(1,2-dichlorovinyl)-L-cysteine exposure, the ability of the remaining renal proximal tubular cells to regenerate and repair physiological function was monitored as described below. In some experiments, immediately after S-(1,2-dichlorovinyl)-L-cysteine exposure and after daily media change through day 6 after injury, collagen I (0, 5, 15, or 50 μg/ml), collagen IV (0, 5, 15, or 50 μg/ml), laminin (50 μg/ml), or cellular fibronectin (50 μg/ml) was added to the culture media of uninjured and S-(1,2-dichlorovinyl)-L-cysteine-injured renal proximal tubular cells grown in physiological concentrations of AscP. Exogenous collagens I and IV used in this study were triple helical and contained only α1 and α2 chains in conformations similar to those found in the renal basement membrane (3, 25). Laminin was a mixture of biologically active laminin chains found in most epithelial tissues (8, 50) and cellular fibronectin was composed of functional dimers (51).
Measurement of monolayer protein content over time was used to estimate cell density. On days 1, 4, and 6 after sublethal S-(1,2-dichlorovinyl)-L-cysteine injury, renal proximal tubular cell monolayers were washed with PBS and solubilized in Triton buffer (0.05% Triton X-100, 100 mM Tris-Base, 150 mM NaCl, pH 7.5). Samples were sonicated and protein concentrations determined using the method of Lowry (26) or the bicinchoninic acid microassay according to the manufacturer's instructions (Pierce, Rockford, Ill.).

Test [2] relates to renal proximal tubular cells. Put plainly: Basal oxygen consumption (QO2), a measure of mitochondrial function. Conditions: for repair of basal QO2: day 6 after DCVC injury. The protocol: as §1
On days 1, 4, and 6 after sublethal S-(1,2-dichlorovinyl)L-cysteine injury, renal proximal tubular cells bathed in 37° C. culture medium were gently detached from culture dishes with a rubber policeman and transferred to a 37° C. oxygen consumption (QO2) chamber. Basal renal proximal tubular cells QO2 was measured polarographically using a Clark-type electrode as described previously (36).

In test [3] the test system is prolyl hydroxylase activity in renal proximal tubular cells. The test is described as follows: Proline hydroxylation in newly synthesized collagen IV (dual labeling). The conditions noted are these: day 1 after DCVC. The text has this: Proline hydroxylation in collagen molecules occurs at the 4-trans position. Therefore, the extent of proline hydroxylation can be estimated by the loss of hydrogen from the 4-trans position of proline in the hydroxylation reaction. A previously described dual-labeling technique for the determination of proline hydroxylation was modified using [^14C]-L-proline and 4-[^3H]-L-proline incorporation into collagen IV and measuring the ratio of [^3H]:[^14C] in collagen IV molecules (5). A greater extent of proline hydroxylation at the 4-trans position of proline will result in a decrease in the ratio of [^3H]:[^14C] in newly synthesized collagen molecules due to the loss of [^3H]. Renal proximal tubular cells were dual-labeled for 24 hours with [^14C]-L-proline ([…]) and 4-[^3H]-L-proline (62.5 μCi/ml) immediately after S-(1,2-dichlorovinyl)-L-cysteine exposure. Cell-associated and deposited proteins were harvested, and collagen IV was immunoprecipitated as described above. Immunoprecipitated collagen IV was visualized by SDS-PAGE as described above, the 206 kDa bands in the destained gels were excised, and the protein was extracted with 90% hyamine hydroxide overnight at 37° C. [^14C]-Proline and 4-[^3H]-proline in collagen IV was determined using liquid scintillation spectrometry, and the extent of proline hydroxylation was calculated as the ratio of [^3H]:[^14C].

The mark [4] stands for this setting: day 1 after DCVC injury, in presence of exogenous protein.
Setting [5] is: uninjured RPTC, days 1 or 6, exogenous protein.

Take `N[C@@H](CSC(Cl)=CCl)C(=O)O` [S-(1,2-dichlorovinyl)-L-cysteine]: the “cell death and loss” value in test [1] (200 μM for 1.75 hours, 24 hours after the exposure) was “approximately 50%”. The “decrease in monolayer protein content compared to control” value in test [1] (day 1 after DCVC (200 μM), RPTC cultured in 50 μM AscP) stood at 56%. Moreover, the “decrease in QO2” value in test [2] (one day after DCVC (200 μM), both 50 μM and 500 μM AscP) is recorded as “approximately 50%”. Moreover, the “ratio of 4-[^3H]-L-proline:[^14C]-L-proline greater than controls” value in test [3] (50 μM AscP, higher ratio = decreased proline hydroxylation) is given as “approximately 80%”.

On to “collagen IV: Human placenta collagen IV (Sigma); triple helical, containing only α1 and α2 chains”, for which the “decrease in monolayer cell density” value in test [1] (setting [4]) was “approximately 50%”. Further, the “monolayer protein content in injured RPTC” value in test [1] (day 1 or day 6 after DCVC, 50 μg/ml) is on record as “no change”. Also, in test [1] (day 6 after DCVC injury, in presence of exogenous protein), the “cell density as percent of that of uninjured RPTC” value is “approximately 50%”. In test [1] (setting [5]), the “monolayer cell density in untreated RPTC” value is listed as “no effect”. Also, in test [2] (setting [4]), the “decrease in basal QO2” value is on record as “approximately 50%”. The “repair of basal QO2” value in test [2] (50 μg/ml) is “complete repair”; in test [2] (5, 15, 50 μg/ml) it was “recovered basal QO2”. Besides, in test [2] (setting [5]), the “basal QO2 in untreated RPTC” value is “no effect”.

In the case of `O=C1O[C@H]([C@@H](O)CO)C(O)=C1OP(=O)(O)O` [L-ascorbic acid-2-phosphate, L-Ascorbic acid-2-phosphate], in test [1] (4 days after DCVC, 50 μM or 500 μM AscP), the monolayer protein content entry is listed as “remained at day 1 levels”. Also, the “monolayer protein content greater than that of DCVC-treated RPTC grown in 50 μM AscP” value in test [1] (6 days after DCVC, 500 μM AscP) amounted to 34%. Besides, in test [1] (day 1 after DCVC, RPTC cultured in 500 μM AscP), the “cell death and loss (decrease in monolayer protein content)” value came out at 55%. The “monolayer protein content, untreated RPTC, 50 μM vs 500 μM” value in test [1] (uninjured RPTC, any time point) is recorded as “no significant differences”. In addition, the QO2 entry in test [2] (day 4 after DCVC, 50 μM or 500 μM AscP) is given as “remained at day 1 levels”. Also, in test [2] (day 6 after DCVC, 500 μM AscP), the “QO2 higher than in RPTC grown in 50 μM AscP” value stood at 49% and the “QO2 relative to controls” value is reported as “equal to that of controls”. In test [2] (uninjured RPTC), the “basal QO2, untreated RPTC, 50 μM vs 500 μM” value was “equivalent at all time points”. In addition, the “ratio of 4-[^3H]-L-proline:[^14C]-L-proline greater than controls” value in test [3] (500 μM AscP) was “approximately 45%”.

The record behind these values is US7183383B2, “Uses of collagen IV” (The University of Arkansas for Medical Sciences, priority 2002, dated 2007).
